In patent US5430058A, “Pharmaceutical compositions comprising hydroxamate derivatives for iron removal” (Yeda Research and Development Co. Ltd., priority 1993, dated 1995):
Converted amounts (≈) assume the structure as drawn. Where two headings read alike, the source gives them in different places. Blank lines part the entries; values can stand above or below the molecule they belong to.

Experiments:
[1] = system: human HT29 colonic carcinoma cells; test: Proliferation of mammalian cells, HT29; type: cell-based; conditions: for Proliferation (nucleic acid synthesis): 24 hours exposure, [3H]-hypoxanthine; for Proliferation (protein synthesis): [3H]ileu incorporation, not shown
Experimental: (§1) The possibility that the reversed siderophores might affect mammalian cells in culture was assessed in conditions identical to those used for parasites in cultures. […] Nucleic acid synthesis was measured in cultures of mouse NIH 3T3 fibroblasts and human HT29 colonic carcinoma cells in the presence of either SF1-ileu (open circles), desferrioxamine (DFO) (solid triangle) in DMSO or DMSO alone (Control) (<1% final) (open triangles) at same concentrations. Cultures at confluence were exposed to chelators for 24 hours; the first 3 hours without radiolabel and 21 hours with 6 μCi/ml of [^3 H]-hypoxanthine. Extracellular hypoxanthine was removed by several washes with PBS and the cells were treated with 5% TCA for 15 minutes at 5° C. and solubilized with hot 2.5% SDS. Samples were taken for counting of radioactivity and measurement of protein (BCA, Pierce). Data are given as dpm/μg protein and SD (duplicate samples).

[2] = Partition between n-octanol and saline; type: physicochemical; conditions: for rel. Pcoeff (a): Table 2, relative to L-val-n1 = 1.0
Experimental: e. Partition coefficients were obtained by overnight equilibration of the free reversed siderophores between equal volumes of n-octanol and saline. The concentrations of the ligands in each phase were determined by adding excess iron(III) and measuring the ferric complexes at 430 nm.
The values for Pcoeff of free RSF ileun2 (the same as SF1ileu) and of leun2 and their respective iron(III) complexes were similar (not shown).

[3] = system: Plasmodium falciparum strain FCR3; test: Antimalarial activity in various strains, FCR3; type: cell-based
Experimental: (§2) f. Parasite cultures. The P. falciparum strains used in the experiments: ItG2G1 (Brazil, provided by Dr. L. H. Miller), D6 (W. African, provided by Dr. A. J. M. Oduola) FCR-3 (Gambian, provided by Dr. J. B. Jensen) and W2 (Indochina, provided by Dr. A. J. M. Oduola), were grown in culture flasks of human erythrocytes by a modified version of Trager and Jensen's method as described by Silfen et al. ((1988) Biochem. Pharmacol. 37: 4269-4276)).
(§3) g. Bioassay of iron carrier antimalarial activity. […] After the indicated time of incubation with drug and either previous to or after washing 3 times with 100 volumes growth medium, the cells were supplemented with 6 μCi of either [^3 H]-hypoxanthine or [^3 H]-Ileu (Amersham, England) per well and parasite growth assessed after 24-48 hours by harvesting the labelled cells onto glass-fiber filters (Tamar, Inc. Jerusalem) and counting of the radioactivity.
(§4) It is clear that the efficacy of the agents is primarily correlated with the respective octanol/saline partition coefficient or the hydrophobicity of the amino acid side chain, and only secondarily with their iron binding efficiencies, which are relatively high for all the agents. […] The antimalarial activity of the various chelators was assessed over a 24 hr period of exposure on infected cells (trophozoite stage of P. falciparum) as described in method (g). […]

[4] = system: trophozoites of P. falciparum; test: Antimalarial activity (Table 2), [3H]-hypoxanthine incorporation; type: cell-based, Plasmodium falciparum; conditions: 40 h
Experimental: g. Bioassay of iron carrier antimalarial activity. The antimalarial activity was assayed by adding the compounds from concentrated stock solutions (in DMSO) to microcultures (24 wells, Costar) containing infected red cells (2.5% hematocrit and 2% parasitemia). The cultures were usually synchronized (4-7 hrs. windows) by incubation in 300 mM Ala, 10 mM TRIS-Cl in conjunction with gelatin flotation and used either at the trophozoite (1-2% parasitemia) or at the ring stage (4-6% parasitemia) of the erythrocyctic cycle. After the indicated time of incubation with drug and either previous to or after washing 3 times with 100 volumes growth medium, the cells were supplemented with 6 μCi of either [^3 H]-hypoxanthine or [^3 H]-Ileu (Amersham, England) per well and parasite growth assessed after 24-48 hours by harvesting the labelled cells onto glass-fiber filters (Tamar, Inc. Jerusalem) and counting of the radioactivity. […]

[5] = system: synchronized cultures of trophozoites (P. falciparum); test: Time dependence of parasite growth inhibition, trophozoites; type: cell-based, Plasmodium falciparum; conditions: for inhibition at 10 µg/mL: Plasmodium falciparum, read-out: Inhibition of parasite growth; for Inhibitory effect, in words: trophozoites
Experimental: g. Bioassay of iron carrier antimalarial activity. The antimalarial activity was assayed by adding the compounds from concentrated stock solutions (in DMSO) to microcultures (24 wells, Costar) containing infected red cells (2.5% hematocrit and 2% parasitemia). The cultures were usually synchronized (4-7 hrs. windows) by incubation in 300 mM Ala, 10 mM TRIS-Cl in conjunction with gelatin flotation and used either at the trophozoite (1-2% parasitemia) or at the ring stage (4-6% parasitemia) of the erythrocyctic cycle. After the indicated time of incubation with drug and either previous to or after washing 3 times with 100 volumes growth medium, the cells were supplemented with 6 μCi of either [^3 H]-hypoxanthine or [^3 H]-Ileu (Amersham, England) per well and parasite growth assessed after 24-48 hours by harvesting the labelled cells onto glass-fiber filters (Tamar, Inc. Jerusalem) and counting of the radioactivity.
To study the growth stage of parasites most sensitive to inhibition, the time dependence of the inhibitory effect of SF1-ileu (10 μg/ml) vis a vis that of DFO (80 μg/ml) was assessed both on synchronized cultures of rings and of cultures of trophozoites. The cells were exposed to the […], the cells were washed from extracellular drug and assessed for [^3 H]-hypoxanthine incorporation after the last sample completed the 4 hours incubation period with drug.

[6] = system: mouse NIH 3T3 fibroblasts; test: Proliferation of mammalian cells, NIH 3T3; type: cell-based; conditions: for Proliferation (nucleic acid synthesis): 24 hours exposure, [3H]-hypoxanthine; for Proliferation (protein synthesis): [3H]ileu incorporation, not shown
Experimental: as §1

[7] = system: Plasmodium falciparum strain ItG2G1; test: Antimalarial activity in various strains, ItG2G1; type: cell-based
Experimental: as §2, §3, §4

Structure (SMILES): CC[C@H](C)[C@H](NC(=O)CCOCC(CC)(COCCC(=O)N[C@H](C(=O)N(C)O)[C@@H](C)CC)COCCC(=O)N[C@H](C(=O)N(C)O)[C@@H](C)CC)C(=O)N(C)O [SF1-ileu]
- Proliferation (nucleic acid synthesis) [1]: neither SF1-ileu nor DFO affected the proliferation
- Proliferation (protein synthesis) [1]: neither SF1-ileu nor DFO affected the proliferation
- logP ([2]; Table 1, free ligand, read-out: Partition coefficient (converted)): 1.15
- rel. Pcoeff (a) [2]: 8.2
- Pcoeff of free ligand vs iron(III) complex ([2]; not shown): similar
- IC50 ([3]; FCR3, 48 h): 3 ± 1 µg/mL (≈ 3.86 µM)
- IC50 ([4]; Plasmodium falciparum, read-out: IC50 (c)): 3000 ± 2000 nM
- inhibition at 10 µg/mL ([5]; 2 h): ~90%
- inhibition at 10 µg/mL ([5]; 20 h): > 95%
- Inhibitory effect, in words ([5]; 0.5 hr incubation, SF1-ileu 10 μg/ml): major inhibitory effects
- Proliferation (nucleic acid synthesis) [6]: neither SF1-ileu nor DFO affected the proliferation
- Proliferation (protein synthesis) [6]: neither SF1-ileu nor DFO affected the proliferation
- IC50 ([7]; 48 h): 5 ± 2 µg/mL (≈ 6.44 µM)

- rel. Pcoeff (a) [2]: < 0.056
- IC50 ([3]; strain FCR3 (chloroquine-resistant), 48 hour exposure, trophozoites, read-out: IC50): 32 ± 7 µg/mL (≈ 57.1 µM)
- IC50 (c) [4]: 40000 ± 8000 nM
- IC50 ([7]; strain ItG2G1 (chloroquine-sensitive), 48 hour exposure, trophozoites, read-out: IC50): 35 ± 3 µg/mL (≈ 62.4 µM)
Structure (SMILES): CC(=O)N(O)CCCCCNC(=O)CCC(=O)N(O)CCCCCNC(=O)CCC(=O)N(O)CCCCCN [DFO, desferrioxamine B, reference compound]
- Proliferation (nucleic acid synthesis) [1]: neither SF1-ileu nor DFO affected the proliferation
- Proliferation (protein synthesis) [1]: neither SF1-ileu nor DFO affected the proliferation
- Inhibitory effect, in words ([5]; DFO 80 μg/ml, 6 hrs exposure): inhibitory effects were dismal
- Inhibitory effect, in words ([5]; DFO 80 μg/ml, 20 hrs exposure): substantial inhibition
- Proliferation (nucleic acid synthesis) [6]: neither SF1-ileu nor DFO affected the proliferation
- Proliferation (protein synthesis) [6]: neither SF1-ileu nor DFO affected the proliferation
